# Tests used:
# [1] = test system: A431cells (human epidermoid carcinoma); assay: In vitro tumor cell proliferation assay (Cell Titer-Glo luminescent cell viability), A431 cells; format: cell-based; conditions: A-431, 72 h, 72 hours drug exposure, 10% Fetal Bovine Serum, ATP luminescence readout, read-out: IC50 (50% inhibition of cell proliferation)
# How it was run: (§1)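 ATP luminescence (CellTiter-Glo) measured proliferation after 72 h compound exposure at 37 °C, giving IC50 values. Serial dilutions spanning 64 pM–100 μM in 0.1% DMSO were applied one day after plating 2.5×10^3 cells/well in RPMI plus 10% fetal bovine serum.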
# [2] = test system: BT474 (human breast carcinoma); assay: In vitro tumor cell proliferation assay (Cell Titer-Glo luminescent cell viability), BT474 cells; format: cell-based; conditions: BT-474, 72 hours drug exposure, 10% Fetal Bovine Serum, ATP luminescence readout, read-out: IC50 (50% inhibition of cell proliferation)
# How it was run: as §1
IC50 [1],IC50 [2],Structure (SMILES)
< 5 µM,< 5 µM,"CN1CCN(CCC2CCc3c(sc4ncnc(Nc5ccc(OCc6cccc(F)c6)c(Cl)c5)c34)C2)CC1 (stereo not drawn) [Example 158, N-{3-chloro-4-[(3-fluorobenzyl)oxy]phenyl}-7-[2-(4-methylpiperazin-1-yl)ethyl]-5,6,7,8-tetrahydro[1]benzothieno[2,3-d]pyrimidin-4-amine]"
< 5 µM,< 5 µM,"COCCN(C)CCC1CCc2c(sc3ncnc(Nc4ccc(OCc5cccc(F)c5)c(Cl)c4)c23)C1 (stereo not drawn) [Example 159, N-{3-chloro-4-[(3-fluorobenzyl)oxy]phenyl}-7-{2-[(2-methoxyethyl)(methyl)amino]ethyl}-5,6,7,8-tetrahydro[1]benzothieno[2,3-d]pyrimidin-4-amine]"
< 5 µM,< 5 µM,CN(C)[C@@H]1CCN(CCC2CCc3c(sc4ncnc(Nc5ccc(OCc6cccc(F)c6)c(Cl)c5)c34)C2)C1 (stereo partly drawn) [Example 160]
< 5 µM,< 5 µM,"Fc1cccc(COc2ccc(Nc3ncnc4sc5c(c34)CCC(CCN3CCCC3)C5)cc2Cl)c1 (stereo not drawn) [Example 161, N-{3-chloro-4-[(3-fluorobenzyl)oxy]phenyl}-7-(2-pyrrolidin-1-ylethyl)-5,6,7,8-tetrahydro[1]benzothieno[2,3-d]pyrimidin-4-amine]"
< 5 µM,< 5 µM,"CN(C)CCNCCC1CCc2c(sc3ncnc(Nc4ccc(OCc5cccc(F)c5)c(Cl)c4)c23)C1 (stereo not drawn) [Example 162, N′-{2-[4-({3-chloro-4-[(3-fluorobenzyl)oxy]phenyl}amino)-5,6,7,8-tetrahydro[1]benzothieno[2,3-d]pyrimidin-7-yl]ethyl}-N,N-dimethylethane-1,2-diamine]"
< 5 µM,< 5 µM,"OCCNCCC1CCc2c(sc3ncnc(Nc4ccc(OCc5cccc(F)c5)c(Cl)c4)c23)C1 (stereo not drawn) [Example 163, 2-({2-[4-({3-chloro-4-[(3-fluorobenzyl)oxy]phenyl}amino)-5,6,7,8-tetrahydro[1]benzothieno[2,3-d]pyrimidin-7-yl]ethyl}amino)ethanol]"
< 5 µM,< 5 µM,"CN(C)CCC1CCc2c(sc3ncnc(Nc4ccc(OCc5cccc(F)c5)c(Cl)c4)c23)C1 (stereo not drawn) [Example 164, N-{3-chloro-4-[(3-fluorobenzyl)oxy]phenyl}-7-[2-(dimethylamino)ethyl]-5,6,7,8-tetrahydro[1]benzothieno[2,3-d]pyrimidin-4-amine]"
< 5 µM,< 5 µM,"OCCN(CCO)CCC1CCc2c(sc3ncnc(Nc4ccc(OCc5cccc(F)c5)c(Cl)c4)c23)C1 (stereo not drawn) [Example 165, 2,2′-({2-[4-({3-chloro-4-[(3-fluorobenzyl)oxy]phenyl}amino)-5,6,7,8-tetrahydro[1]benzothieno[2,3-d]pyrimidin-7-yl]ethyl}imino)diethanol]"
< 50 µM,< 5 µM,"Fc1cccc(COc2ccc(Nc3ncnc4sc5c(c34)CCC(CCNCCN3CCOCC3)C5)cc2Cl)c1 (stereo not drawn) [Example 166, N-{3-chloro-4-[(3-fluorobenzyl)oxy]phenyl}-7-{2-[(2-morpholin-4-ylethyl)amino]ethyl}-5,6,7,8-tetrahydro[1]benzothieno[2,3-d]pyrimidin-4-amine]"
< 5 µM,< 5 µM,"Fc1cccc(COc2ccc(Nc3ncnc4sc5c(c34)CCC(CCN3CCCCC3)C5)cc2Cl)c1 (stereo not drawn) [Example 167, N-{3-chloro-4-[(3-fluorobenzyl)oxy]phenyl}-7-(2-piperidin-1-ylethyl)-5,6,7,8-tetrahydro[1]benzothieno[2,3-d]pyrimidin-4-amine]"
< 5 µM,< 5 µM,"COCCN1CCN(CCC2CCc3c(sc4ncnc(Nc5ccc(OCc6cccc(F)c6)c(Cl)c5)c34)C2)CC1 (stereo not drawn) [Example 168, N-{3-chloro-4-[(3-fluorobenzyl)oxy]phenyl}-7-{2-[4-(2-methoxyethyl)piperazin-1-yl]ethyl}-5,6,7,8-tetrahydro[1]benzothieno[2,3-d]pyrimidin-4-amine]"
< 5 µM,< 5 µM,"CNCCC1CCc2c(sc3ncnc(Nc4ccc(OCc5cccc(F)c5)c(Cl)c4)c23)C1 (stereo not drawn) [Example 169, N-{3-chloro-4-[(3-fluorobenzyl)oxy]phenyl}-7-[2-(methylamino)ethyl]-5,6,7,8-tetrahydro[1]benzothieno[2,3-d]pyrimidin-4-amine]"
< 5 µM,< 5 µM,"Fc1cccc(COc2ccc(Nc3ncnc4sc5c(c34)CCC(CCn3ccnc3)C5)cc2Cl)c1 (stereo not drawn) [Example 170, N-{3-chloro-4-[(3-fluorobenzyl)oxy]phenyl}-7-[2-(1H-imidazol-1-yl)ethyl]-5,6,7,8-tetrahydro[1]benzothieno[2,3-d]pyrimidin-4-amine]"
< 5 µM,< 5 µM,"Fc1cccc(COc2ccc(Nc3ncnc4sc5c(c34)CCC(CCN3CCN(Cc4ccncc4)CC3)C5)cc2Cl)c1 (stereo not drawn) [Example 171, N-{3-chloro-4-[(3-fluorobenzyl)oxy]phenyl}-7-{2-[4-(pyridin-4-ylmethyl)piperazin-1-yl]ethyl}-5,6,7,8-tetrahydro[1]benzothieno[2,3-d]pyrimidin-4-amine]"
< 50 µM,< 5 µM,"N#Cc1ccc(N2CCN(CCC3CCc4c(sc5ncnc(Nc6ccc(OCc7cccc(F)c7)c(Cl)c6)c45)C3)CC2)cc1 (stereo not drawn) [Example 172, 4-(4-{2-[4-({3-chloro-4-[(3-fluorobenzyl)oxy]phenyl}amino)-5,6,7,8-tetrahydro[1]benzothieno[2,3-d]pyrimidin-7-yl]ethyl}piperazin-1-yl)benzonitrile]"
< 50 µM,< 5 µM,"CCOC(=O)CC1CCc2c(sc3ncnc(Nc4ccc(OCc5ccccn5)c(Cl)c4)c23)C1 (stereo not drawn) [Example 173, {4-[3-Chloro-4-(pyridin-2-ylmethoxy)-phenylamino]-5,6,7,8-tetrahydro-benzo[4,5]thieno[2,3-d]pyrimidin-7-yl}-acetic acid ethyl ester]"
< 50 µM,< 5 µM,"OCCC1CCc2c(sc3ncnc(Nc4ccc(OCc5ccccn5)c(Cl)c4)c23)C1 (stereo not drawn) [Example 174, 2-{4-[3-Chloro-4-(pyridin-2-ylmethoxy)-phenylamino]-5,6,7,8-tetrahydro-benzo[4,5]thieno[2,3-d]pyrimidin-7-yl}-ethanol]"
< 5 µM,< 5 µM,"CS(=O)(=O)OCCC1CCc2c(sc3ncnc(Nc4ccc(OCc5ccccn5)c(Cl)c4)c23)C1 (stereo not drawn) [Example 175, Methanesulfonic acid 2-{4-[3-chloro-4-(pyridin-2-ylmethoxy)-phenylamino]-5,6,7,8-tetrahydro-benzo[4,5]thieno[2,3-d]pyrimidin-7-yl}-ethyl ester]"
< 5 µM,< 5 µM,"COCCNCCC1CCc2c(sc3ncnc(Nc4ccc(OCc5ccccn5)c(Cl)c4)c23)C1 (stereo not drawn) [Example 176, N-[3-chloro-4-(pyridin-2-ylmethoxy)phenyl]-7-{2-[(2-methoxyethyl)amino]ethyl}-5,6,7,8-tetrahydro[1]benzothieno[2,3-d]pyrimidin-4-amine]"
< 5 µM,< 5 µM,"Clc1cc(Nc2ncnc3sc4c(c23)CCC(CCN2CCOCC2)C4)ccc1OCc1ccccn1 (stereo not drawn) [Example 177, [3-Chloro-4-(pyridin-2-ylmethoxy)-phenyl]-[7-(2-morpholin-4-yl-ethyl)-5,6,7,8-tetrahydro-benzo[4,5]thieno[2,3-d]pyrimidin-4-yl]-amine]"
< 5 µM,< 5 µM,"CS(=O)(=O)CCNCCC1CCc2c(sc3ncnc(Nc4ccc(OCc5ccccn5)c(Cl)c4)c23)C1 (stereo not drawn) [Example 178, N-[3-chloro-4-(pyridin-2-ylmethoxy)phenyl]-7-(2-{[2-(methylsulfonyl)ethyl]amino}ethyl)-5,6,7,8-tetrahydro[1]benzothieno[2,3-d]pyrimidin-4-amine]"
< 5 µM,< 5 µM,"OCCN(CCO)CCC1CCc2c(sc3ncnc(Nc4ccc(OCc5ccccn5)c(Cl)c4)c23)C1 (stereo not drawn) [Example 179, 2,2′-{[2-(4-{[3-chloro-4-(pyridin-2-ylmethoxy)phenyl]amino}-5,6,7,8-tetrahydro[1]benzothieno[2,3-d]pyrimidin-7-yl)ethyl]imino}diethanol]"
< 50 µM,< 5 µM,"OCCNCCC1CCc2c(sc3ncnc(Nc4ccc(OCc5ccccn5)c(Cl)c4)c23)C1 (stereo not drawn) [Example 180, 2-{[2-(4-{[3-chloro-4-(pyridin-2-ylmethoxy)phenyl]amino}-5,6,7,8-tetrahydro[1]benzothieno[2,3-d]pyrimidin-7-yl)ethyl]amino}ethanol]"
< 50 µM,< 5 µM,"CN(C)[C@@H]1CCN(CCC2CCc3c(sc4ncnc(Nc5ccc(OCc6ccccn6)c(Cl)c5)c34)C2)C1 (stereo partly drawn) [Example 181, N-[3-chloro-4-(pyridin-2-ylmethoxy)phenyl]-7-{2-[(3R)-3-(dimethylamino)pyrrolidin-1-yl]ethyl}-5,6,7,8-tetrahydro[1]benzothieno[2,3-d]pyrimidin-4-amine]"
< 50 µM,< 5 µM,"Clc1cc(Nc2ncnc3sc4c(c23)CCC(CCn2ccnc2)C4)ccc1OCc1ccccn1 (stereo not drawn) [Example 182, N-[3-chloro-4-(pyridin-2-ylmethoxy)phenyl]-7-[2-(1H-imidazol-1-yl)ethyl]-5,6,7,8-tetrahydro[1]benzothieno[2,3-d]pyrimidin-4-amine]"
< 5 µM,< 5 µM,"CN1CCN(CCC2CCc3c(sc4ncnc(Nc5ccc(OCc6ccccn6)c(Cl)c5)c34)C2)CC1 (stereo not drawn) [Example 183, N-[3-chloro-4-(pyridin-2-ylmethoxy)phenyl]-7-[2-(4-methylpiperazin-1-yl)ethyl]-5,6,7,8-tetrahydro[1]benzothieno[2,3-d]pyrimidin-4-amine]"
< 5 µM,< 5 µM,"CN(C)CCNCCC1CCc2c(sc3ncnc(Nc4ccc(OCc5ccccn5)c(Cl)c4)c23)C1 (stereo not drawn) [Example 184, N′-[2-(4-{[3-chloro-4-(pyridin-2-ylmethoxy)phenyl]amino}-5,6,7,8-tetrahydro[1]benzothieno[2,3-d]pyrimidin-7-yl)ethyl]-N,N-dimethylethane-1,2-diamine]"

# — patent US7238701B2, “Substituted tetrahydrobenzothienopyrimidinamine compounds useful for treating hyper-proliferative disorders” (Bayer Pharmaceuticals Corporation, priority 2003, dated 2007)
